Legend:
[1] = biological target: T1, PAF Binding, dog platelets (Canis lupus familiaris, UniProt A0A8I3NSH0); assay: PAF Binding Assay (inhibition of 3H-PAF binding to washed dog platelets); conditions: dog platelets, 3H-PAF, 10 minutes at room temperature; read-out: Inhib of PAF Binding IC50
T1 construct: Washed platelets were prepared by resuspending the platelet pellet once with PBS containing 1 mM EDTA; from tissue; host or cells: washed platelets from dog blood
T1 sequence (A0A8I3NSH0 1-343): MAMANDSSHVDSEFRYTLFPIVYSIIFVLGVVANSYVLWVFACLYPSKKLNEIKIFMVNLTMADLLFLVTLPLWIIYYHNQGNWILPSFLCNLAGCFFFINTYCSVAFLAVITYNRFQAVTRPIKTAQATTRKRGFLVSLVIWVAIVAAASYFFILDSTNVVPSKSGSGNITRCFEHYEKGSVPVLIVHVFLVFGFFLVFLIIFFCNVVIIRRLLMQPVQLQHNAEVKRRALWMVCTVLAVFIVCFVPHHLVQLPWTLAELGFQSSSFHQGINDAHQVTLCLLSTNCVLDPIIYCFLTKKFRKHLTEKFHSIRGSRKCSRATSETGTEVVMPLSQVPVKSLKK
Method: The binding assay was done in 400 μl polyethylene microcentrifuge tubes (Beckman) containing 50 μl of an oil mixture of 2 parts Siliconol AR200 (Serva): 1 part Silicone Fluid (Arthur H. Thomas). Buffer, standards, or analogs (150 μl total volume) were added to the tubes. Radiolabelled ^3 H-PAF (50 μl) was then added to the tubes. The reaction was started by the addition of 50 μl of dog platelets (2×10^7 platelets). The tubes were capped, inverted several times to mix, and incubated for 10 minutes at room temperature. The platelets were separated from the incubation mixture by centrifuging 1 minute in a Beckman Microfuge B centrifuge. The tip of the microfuge tube was cut off, and the platelets were washed out of the tip with 200 μl of 50% methanol (Burdick and Jackson). Aquasol (NEN, 10 ml) was added and the radioactivity in the samples was determined using an LS 8100 Beckman liquid scintillation counter linked to a Techtran tape recorder. Data was processed through an in-house computer system. Alternatively, radioactivity was determined using a Searle Mark III liquid scintillation counter linked to a Iso-Data microprocessor.
(b) Preparation of Platelets
Blood was collected from anesthesized or unanesthesized dogs into 50 ml plastic centrifuge tubes containing 3.8% sodium citrate as the anticoagulant (1 volume of citrate/9 volumes of blood). The red cells were removed by centrifugation for 15 minutes at 600 rpm (100-125 g) at room temperature. An aliquot of the supernatant platelet rich plasma (PRP) was saved for cell counting and the remainder was acidified to PH 6.5 with 0.15M citric acid. The platelet pellet was obtained after a 10 minute centrifugation at 2000 rpm (1000 g) at room temperature. Washed platelets were prepared by resuspending the platelet pellet once with PBS containing 1 mM EDTA, centrifuging as noted, and then resuspending the platelets in 0.1% BSA-PBS. An aliquot of the washed platelets was counted. Platelets used for binding assays were diluted to 2×10^7 platelets/assay tube (4×10^8 platelets/ml). Platelet counting was done using a Royco Cell-Crit 921.

[2] = test system: PAF-Induced Bronchoconstriction; assay: PAF Induced Bronchoconstriction Assay; type: in vivo, guinea pig; conditions: for inhibition in vivo at 50 mg/kg: Cavia porcellus, po, 2-hour pretreatment, read-out: Percent Inhib. of PAF-Induced Bronchoconstriction, 50 mg/Kg p.o.; for inhibition in vivo at 50 mg/kg / Percent Inhib. of PAF-Induced Bronchoconstriction, 50 mg/Kg p.o. (8 hr): 50 mg/Kg p.o.; for Percent Inhib. of PAF-Induced Bronchoconstriction, mg/Kg i.v.: i.v. (dose not given), 1 minute pretreatment, PAF 1.0 μg/kg i.v.
Method: PAF Induced Bronchoconstriction Assay
Male animals (Hartlet Strain 400-500 g) were anesthetized with urethane (2 g/kg. i.p.). Each animals' trachea was cannulated and the guinea pigs were repirated using a Harvard small animal rodent respirator (3.0 cc stroke volume, 40 breaths per min.). Tracheal pressure was recorded from a cannula inserted in the trachea and connected to a Statham Pressure Transducer.
The jugular vein was cannulated for administering compounds. Spontaneous breathing was arrested with succinylcholine (1.2 mg/kg. i.v.) administered 2 minutes prior to intravenous injection of platelet activating factor (PAF).
For, the intravenous testing, the guinea pig is given a 5-minute pretreatment with propranolol at a dose of 0.1 mg/kg intravenously. The test compound is administered with a 1 minute pretreatment prior to intravenous challenge with PAF. The animal is than challenged with a 1.0 μg/kg intravenous dose of PAF and the change is tracheal pressure is measured.
For the oral testing, the procedure includes a 2-hour pretreatment period with the test compound administered through an oral gavage tube. Propranolol or succinylcholine and PAF are administered intravenously, and the change in tracheal pressure measured.
The change is tracheal pressure is determined by subtracting the steady state baseline achieved after administration of succinylcholine from the peak bronchoconstriction seen after challenge with PAF. The mean is calculated for each test compound and compared to the mean of the control animals to give the percent inhibition of bronchoconstriction. The standard error is calcuated as the standard error of the mean.

| Structure (SMILES) | IC50 [1] [nM] | inhibition in vivo at 50 mg/kg [2] [%] | Percent Inhib. of PAF-Induced Bronchoconstriction, mg/Kg i.v. [2] [%] | Percent Inhib. of PAF-Induced Bronchoconstriction, 50 mg/Kg p.o. (8 hr) [2] [%] |
| --- | --- | --- | --- | --- |
| CCCCC/C(=C/C=C/C(=O)N[C@H](C)CCCc1cccnc1)c1ccc(OC)cc1 [[R-(2E,4Z)]-5-(4-methoxyphenyl)-N-[1-methyl-4-(3-pyridinyl)butyl]-2,4-decadienamide] | – | – | 57 ± 12 | – |
| COc1ccc(C(=C/C=C/C(=O)NCCCOc2cccnc2)c2ccc(OC)cc2)cc1 [(E)-5,5-bis(4-methoxyphenyl)-N-[3-[(3-pyridinyl)oxy]propyl]-2,4-pentadienamide] | 300 | – | – | – |
| CC(C)(CCCc1cccnc1)NC(=O)/C=C/C=C(c1cccc(F)c1)c1cccc(F)c1 [(E)-5,5-bis(3-Fluorophenyl)-N-[1,1-dimethyl-4-(3-pyridinyl)butyl]-2,4-pentadienamide] | – | 11 ± 10 | – | – |
| C/C(=C\C=C(c1ccccc1)c1ccccc1)C(=O)NCCCCc1cccnc1 [(E)-5,5-Diphenyl-2-methyl-N-[4-(3-pyridinyl)butyl]-2,4-pentadienamide] | 100 | – | – | – |
| COc1cccc(C(=C/C=C/C(=O)NC(C)(C)CCCc2cccnc2)c2cccc(OC)c2)c1 [(E)-5,5-bis(3-Methoxyphenyl)-N-[1,1-dimethyl-4-(3-pyridinyl)butyl]-2,4-pentadienamide] | – | 22 ± 10 | – | – |
| CCCCC/C(=C\C=C\C(=O)N[C@H](C)CCCc1cccnc1)c1ccc(OC)cc1 [[R-(E,E)]5-(4-methoxyphenyl)-N-[1-methyl-4-(3-pyridinyl)butyl]-2,4-decadienamide] | – | 100 ± 0.5 | 99 ± 1 | 71 ± 14 |
| COc1ccc(/C(=C\C=C\C(=O)N[C@H](C)CCCc2cccnc2)C2CCCCC2)cc1 [[R-(2E,4Z)]-5-cyclohexyl-5-(4-methoxyphenyl)-N-[1-methyl-4-(3-pyridinyl)butyl]-2,4-pentadienamide] | – | – | 18 ± 12 | – |
| COc1cccc(C(=C/C=C/C(=O)NCCCCCCc2cccnc2)c2cccc(OC)c2)c1 [(E)-5,5-bis(3-Methoxyphenyl)-N-[6-(3-pyridinyl)hexyl]-2,4-pentadienamide] | 450 | – | – | – |
| COc1ccc(/C(=C\C=C\C(=O)N[C@H](C)CCCc2cccnc2)c2ccccc2)cc1 [[R-(2E,4Z)]-5-(4-methoxyphenyl)-N-[1-methyl-4-(3-pyridinyl)butyl]-5-phenyl-2,4-pentadienamide] | – | 0 | 74 ± 11 | – |
| COc1ccc(C(=C/C=C/C(=O)NC(C)(C)CCCc2cccnc2)c2ccc(OC)cc2)cc1 [(E)-5,5-bis(4-Methoxyphenyl)-N-1,1-dimethyl-4-(3-pyridinyl)butyl]-2,4-pentadienamide] | – | 54 ± 9 | – | – |
| C[C@@H](CCCc1cccnc1)NC(=O)/C=C/C=C(c1ccc(F)cc1)c1ccc(F)cc1 [[S-(E)]-5,5-bis(4-fluorophenyl)-N-[1-methyl-4-(3-pyridinyl)butyl]-2,4-pentadienamide] | – | 44 ± 10 | – | – |
| Cc1ccc(C(=C/C=C/C(=O)NCCCCc2cccnc2)c2ccc(C)cc2)cc1 [(E)-5,5-bis(4-methylphenyl)-N-[4-(3-pyridinyl)butyl]-2,4-pentadienamide] | – | 67 ± 15 | 95 ± 1 | 11 ± 6 |
| COc1ccc(/C(=C/C=C/C(=O)N[C@H](C)CCCc2cccnc2)c2ccccc2)cc1 [[R-(E,E)]-5-(4-methoxyphenyl)-N-[1-methyl-4-(3-pyridinyl)butyl]-5-phenyl-2,4-pentadienamide] | – | 95 ± 1 | 89 ± 4 | – |
| COc1ccc(C(=C/C=C/C(=O)NC(CCCc2cccnc2)C(C)C)c2ccc(OC)cc2)cc1 (racemic) [[R,S-(E)]-5,5-bis(4-methoxyphenyl)-N-[1-(1-methylethyl)-4-(3-pyridinyl)butyl]-2,4-pentadienamide] | – | 57 ± 19 | 87 ± 7 | – |
| CC(C)(CCCc1cccnc1)NC(=O)/C=C/C=C(c1ccc(F)cc1)c1ccc(F)cc1 [(E)-5,5-bis(4-Fluorophenyl)-N-[1,1-dimethyl-4-(3-pyridinyl)butyl]-2,4-pentadienamide] | – | 20 ± 14 | – | – |

Now from value to compound, other results behind:

| IC50 [1] [nM] | Structure (SMILES) | inhibition in vivo at 50 mg/kg [2] [%] | Percent Inhib. of PAF-Induced Bronchoconstriction, mg/Kg i.v. [2] [%] | Percent Inhib. of PAF-Induced Bronchoconstriction, 50 mg/Kg p.o. (8 hr) [2] [%] |
| --- | --- | --- | --- | --- |
| 30 | CC/C(=C\C=C\C(=O)N[C@H](C)CCCc1cccnc1)c1ccc(OC)cc1 [[R-(E,E)]-5-(4-methoxyphenyl)-N-[1-methyl-4-(3-pyridinyl)butyl]-2,4-heptadienamide] | 84 ± 2 | 72 ± 13 | – |
| > 1000 | COc1ccc(C(=C/C=C/C(=O)NC(CCCc2cccnc2)C2CCCCC2)c2ccc(OC)cc2)cc1 (racemic) [[R,S-(E)]-N-[1-cyclohexyl-4-(3-pyridinyl)butyl]-5,5-bis(4-methoxyphenyl)-2,4-pentadienamide] | – | 11 ± 15 | – |
| 50 | CCC/C(=C\C=C\C(=O)N[C@H](C)CCCc1cccnc1)c1ccc(OC)cc1 [[R-(E,E)]-5-(4-methoxyphenyl)-N-[1-methyl-4-(3-pyridinyl)butyl]-2,4-octadienamide] | 9 ± 13 | 86 ± 7 | – |
| 700 | COc1ccc(C(=C/C=C/C(=O)NC(C)CCCc2ccc(C)nc2)c2ccc(OC)cc2)cc1 (racemic) [[R,S-(E)]-5,5-bis(4-methoxyphenyl)-N-[1-methyl-4-(6-methyl-3-pyridinyl)butyl]-2,4-pentadienamide] | – | – | – |
| 20 | COc1cccc(C(=C/C=C/C(=O)NC(C)CCCc2cccnc2)c2cccc(OC)c2)c1 (racemic) [[R.S-(E)]-5,5-bis(3-methoxyphenyl)-N-[1-methyl-4-(3-pyridinyl)butyl]-2,4-pentadienamide] | – | – | – |
| > 1000 | COc1ccc(C(=C/C=C/C(=O)NCCCCc2cncc3ccccc23)c2ccc(OC)cc2)cc1 [(E)-N-[4-(4-isoquinolinyl)butyl]-5,5-bis(4-methoxyphenyl)-2,4-pentadienamide] | – | – | – |
| 400 | O=C(/C=C\C=C(c1ccccc1)c1ccccc1)NCCCCc1cccnc1 [(Z)-5,5-diphenyl-N-[4-(3-pyridinyl)butyl]-2,4-pentadienamide] | – | – | – |
| 900 | CCc1ccc(CCCC(C)NC(=O)/C=C/C=C(c2ccc(OC)cc2)c2ccc(OC)cc2)cn1 (racemic) [[R,S-(E)]-5,5-bis-(4-methoxyphenyl)-N-[1-methyl-4-(6-ethyl-3-pyridinyl)butyl]-2,4-pentadienamide] | – | – | – |
| 100 | CC(CCCc1cccnc1)NC(=O)/C=C/C=C(c1ccccc1)c1ccccc1 (racemic) [[R,S-(E)]-5,5-Diphenyl-N-[1-methyl-4-(3-pyridinyl)butyl]-2,4-pentadienamide] | – | – | – |
| > 1000 | COc1ccc(C(=C/C=C/C(=O)NCCCc2cccc3ccncc23)c2ccc(OC)cc2)cc1 [(E)-N-[3-(8-isoquinolinyl)propyl]-5,5-bis(4-methoxyphenyl)-2,4-pentadienamide] | – | – | – |
| 600 | COc1ccc(C(=C/C=C/C(=O)Nc2cccc3cnccc23)c2ccc(OC)cc2)cc1 [(E)-N-(5-isoquinolinyl)-5,5-bis(4-methoxyphenyl)-2,4-pentadienamide] | – | – | – |

From patent US4788206A, “Pentadieneamides” (Hoffmann-La Roche Inc., priority 1987, dated 1988)
